Experimental data: patent publication US20100267561A1, “HERBICIDAL PYRIDAZINONE DERIVATIVES” (priority 2007, published 2010)

How the values were obtained:
Test in all cases: Test B pre-/postemergence plant response
Assay type in all cases: in vivo
[1] = test system: wheat (Triticum aestivum); details: Preemergence; for Wheat plant response rating: scale 0 to 100
Method in brief: (§1)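 Preemergence and postemergence (plants 2-18 cm, 1- to 4-leaf stage) applications used test chemicals in a non-phytotoxic solvent with surfactant. Plants were held in a greenhouse 13 to 15 days, then rated visually against controls on a 0-100 scale (0 no effect, 100 complete control).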

[2] = test system: eastern black (E.B.) nightshade (Solanum ptycanthum); details: Preemergence
Method in brief: as §1

[3] = test system: common (oilseed) sunflower (Helianthus annuus); details: Preemergence
Method in brief: as §1

[4] = test system: goosegrass (Eleusine indica); details: Preemergence
Method in brief: as §1

[5] = test system: surinam grass (Brachiaria decumbens); details: Preemergence; for Surinam Grass plant response rating: scale 0 to 100
Method in brief: as §1

[6] = test system: common ragweed (Ambrosia elation); details: Preemergence
Method in brief: as §1

[7] = test system: soybean (Glycine max); details: Preemergence
Method in brief: as §1

[8] = test system: large crabgrass (Digitaria sanguinalis); details: Preemergence
Method in brief: as §1

[9] = test system: blackgrass (Alopecurus myosuroides); details: Preemergence; for Blackgrass plant response rating: 8 g ai/ha
Method in brief: as §1

[10] = test system: morningglory (Ipomoea coccinea); details: Preemergence
Method in brief: as §1

[11] = test system: green foxtail (Setaria viridis); details: Preemergence
Method in brief: as §1

[12] = test system: lambsquarters (Chenopodium album); details: Preemergence
Method in brief: as §1

[13] = test system: wild oat (Avena fatua); details: Preemergence
Method in brief: as §1

[14] = 16 g ai/ha, scale 0 to 100 (0 no effect, 100 complete control)
[15] = 31 g ai/ha, scale 0 to 100 (0 no effect, 100 complete control)
[16] = 62 g ai/ha, 0 to 100 scale, 0 no effect, 100 complete control
[17] = 31 g ai/ha, 0 to 100 scale, 0 no effect, 100 complete control

SMILES: Cc1cc(-c2ccc(Cl)cc2)nn1-c1c(OS(=O)(=O)c2cccc3ccccc23)cnn(C)c1=O [Compound 47]
- Plant response rating, Wheat [1, 14]: 0
- Plant response rating, Wheat [1, 15]: 0
- Plant response rating, Wheat [1, 16]: 20
- Wheat plant response rating ([1]; 8 g ai/ha): 0
- Plant response rating, Nightshade, E. B. [2, 14]: 0
- Plant response rating, Nightshade, E. B. [2, 15]: 0
- Plant response rating, Nightshade, E. B. ([2]; 62 g ai/ha, scale 0 to 100): 0
- Nightshade, E. B. plant response rating ([2]; 8 g ai/ha, scale 0 to 100): 0
- Plant response rating, Sunflower [3, 14]: 0
- Plant response rating, Sunflower [3, 15]: 0
- Plant response rating, Sunflower ([3]; 62 g ai/ha, scale 0 to 100): 0
- Sunflower plant response rating ([3]; 8 g ai/ha, scale 0 to 100): 0
- Plant response rating, Goosegrass [4, 14]: 98
- Plant response rating, Goosegrass [4, 17]: 100
- Plant response rating, Goosegrass ([4]; 62 g ai/ha, scale 0 to 100): 100
- Goosegrass plant response rating ([4]; 8 g ai/ha, scale 0 to 100): 70
- Plant response rating, Surinam Grass [5, 14]: 95
- Plant response rating, Surinam Grass [5, 15]: 98
- Plant response rating, Surinam Grass [5, 16]: 100
- Surinam Grass plant response rating ([5]; 8 g ai/ha): 80
- Plant response rating, Ragweed [6, 14]: 0
- Plant response rating, Ragweed [6, 15]: 0
- Plant response rating, Ragweed ([6]; 62 g ai/ha, scale 0 to 100): 0
- Ragweed plant response rating ([6]; 8 g ai/ha, scale 0 to 100): 0
- Plant response rating, Soybean [7, 14]: 0
- Plant response rating, Soybean [7, 15]: 0
- Plant response rating, Soybean ([7]; 62 g ai/ha, scale 0 to 100): 0
- Soybean plant response rating ([7]; 8 g ai/ha, scale 0 to 100): 0
- Plant response rating, Crabgrass, Large [8, 14]: 85
- Plant response rating, Crabgrass, Large [8, 17]: 100
- Plant response rating, Crabgrass, Large ([8]; 62 g ai/ha, scale 0 to 100): 100
- Crabgrass, Large plant response rating ([8]; 8 g ai/ha, scale 0 to 100): 0
- Plant response rating, Blackgrass [9, 14]: 70
- Plant response rating, Blackgrass [9, 17]: 100
- Plant response rating, Blackgrass ([9]; 62 g ai/ha, scale 0 to 100): 100
- Blackgrass plant response rating ([9]; scale 0 to 100): 70
- Plant response rating, Morningglory [10, 14]: 0
- Plant response rating, Morningglory [10, 15]: 0
- Plant response rating, Morningglory ([10]; 62 g ai/ha, scale 0 to 100): 0
- Morningglory plant response rating ([10]; 8 g ai/ha, scale 0 to 100): 0
- Plant response rating, Foxtail, Green [11, 14]: 80
- Plant response rating, Foxtail, Green [11, 17]: 100
- Plant response rating, Foxtail, Green ([11]; 62 g ai/ha, scale 0 to 100): 100
- Foxtail, Green plant response rating ([11]; 8 g ai/ha, scale 0 to 100): 5
- Plant response rating, Lambsquarters [12, 17]: 0
- Plant response rating, Lambsquarters ([12]; 62 g ai/ha, scale 0 to 100): 65
- Lambsquarters plant response rating ([12]; 8 g ai/ha, scale 0 to 100): 0
- Plant response rating, Oat, Wild [13, 14]: 0
- Plant response rating, Oat, Wild [13, 15]: 0
- Plant response rating, Oat, Wild ([13]; 62 g ai/ha, scale 0 to 100): 70
- Oat, Wild plant response rating ([13]; 8 g ai/ha, scale 0 to 100): 0

SMILES: Cc1cc(-c2ccc(Cl)cc2)nn1-c1c(OS(=O)(=O)C(C)C)cnn(C)c1=O [Compound 50]
- Plant response rating, Wheat [1, 14]: 0
- Plant response rating, Wheat [1, 15]: 0
- Plant response rating, Wheat [1, 16]: 0
- Wheat plant response rating ([1]; 8 g ai/ha): 0
- Plant response rating, Nightshade, E. B. [2, 14]: 0
- Plant response rating, Nightshade, E. B. [2, 15]: 100
- Plant response rating, Nightshade, E. B. ([2]; 62 g ai/ha, scale 0 to 100): 100
- Nightshade, E. B. plant response rating ([2]; 8 g ai/ha, scale 0 to 100): 0
- Plant response rating, Sunflower [3, 14]: 0
- Plant response rating, Sunflower [3, 15]: 0
- Plant response rating, Sunflower ([3]; 62 g ai/ha, scale 0 to 100): 20
- Sunflower plant response rating ([3]; 8 g ai/ha, scale 0 to 100): 0
- Plant response rating, Goosegrass [4, 14]: 80
- Plant response rating, Goosegrass [4, 17]: 98
- Plant response rating, Goosegrass ([4]; 62 g ai/ha, scale 0 to 100): 100
- Goosegrass plant response rating ([4]; 8 g ai/ha, scale 0 to 100): 0
- Plant response rating, Surinam Grass [5, 14]: 40
- Plant response rating, Surinam Grass [5, 15]: 90
- Plant response rating, Surinam Grass [5, 16]: 98
- Surinam Grass plant response rating ([5]; 8 g ai/ha): 20
- Plant response rating, Ragweed [6, 14]: 0
- Plant response rating, Ragweed [6, 15]: 0
- Plant response rating, Ragweed ([6]; 62 g ai/ha, scale 0 to 100): 0
- Ragweed plant response rating ([6]; 8 g ai/ha, scale 0 to 100): 0
- Plant response rating, Soybean [7, 14]: 50
- Plant response rating, Soybean [7, 15]: 100
- Plant response rating, Soybean ([7]; 62 g ai/ha, scale 0 to 100): 100
- Soybean plant response rating ([7]; 8 g ai/ha, scale 0 to 100): 0
- Plant response rating, Crabgrass, Large [8, 14]: 98
- Plant response rating, Crabgrass, Large [8, 17]: 100
- Plant response rating, Crabgrass, Large ([8]; 62 g ai/ha, scale 0 to 100): 100
- Crabgrass, Large plant response rating ([8]; 8 g ai/ha, scale 0 to 100): 60
- Plant response rating, Blackgrass [9, 14]: 0
- Plant response rating, Blackgrass [9, 17]: 60
- Plant response rating, Blackgrass ([9]; 62 g ai/ha, scale 0 to 100): 95
- Blackgrass plant response rating ([9]; scale 0 to 100): 0
- Plant response rating, Morningglory [10, 14]: 0
- Plant response rating, Morningglory [10, 15]: 0
- Plant response rating, Morningglory ([10]; 62 g ai/ha, scale 0 to 100): 30
- Morningglory plant response rating ([10]; 8 g ai/ha, scale 0 to 100): 0
- Plant response rating, Foxtail, Green [11, 14]: 95
- Plant response rating, Foxtail, Green [11, 17]: 98
- Plant response rating, Foxtail, Green ([11]; 62 g ai/ha, scale 0 to 100): 100
- Foxtail, Green plant response rating ([11]; 8 g ai/ha, scale 0 to 100): 0
- Plant response rating, Lambsquarters [12, 14]: 65
- Plant response rating, Lambsquarters [12, 17]: 100
- Plant response rating, Lambsquarters ([12]; 62 g ai/ha, scale 0 to 100): 100
- Lambsquarters plant response rating ([12]; 8 g ai/ha, scale 0 to 100): 0
- Plant response rating, Oat, Wild [13, 14]: 40
- Plant response rating, Oat, Wild [13, 15]: 40
- Plant response rating, Oat, Wild ([13]; 62 g ai/ha, scale 0 to 100): 70
- Oat, Wild plant response rating ([13]; 8 g ai/ha, scale 0 to 100): 20

SMILES: Cc1cc(-c2ccc(Cl)cc2)nn1-c1c(OS(=O)(=O)c2ccc(Cl)s2)cnn(C)c1=O [Compound 55]
- Plant response rating, Wheat [1, 15]: 0
- Plant response rating, Wheat [1, 16]: 5
- Wheat plant response rating ([1]; 16 g ai/ha): 0
- Plant response rating, Nightshade, E. B. [2, 15]: 80
- Plant response rating, Nightshade, E. B. ([2]; 62 g ai/ha, scale 0 to 100): 100
- Nightshade, E. B. plant response rating ([2]; 8 g ai/ha, scale 0 to 100): 0
- Nightshade, E. B. plant response rating ([2]; 16 g ai/ha, scale 0 to 100): 0
- Plant response rating, Sunflower [3, 15]: 0
- Plant response rating, Sunflower ([3]; 62 g ai/ha, scale 0 to 100): 0
- Sunflower plant response rating ([3]; 8 g ai/ha, scale 0 to 100): 0
- Sunflower plant response rating ([3]; 16 g ai/ha, scale 0 to 100): 0
- Plant response rating, Goosegrass [4, 17]: 98
- Plant response rating, Goosegrass ([4]; 62 g ai/ha, scale 0 to 100): 100
- Goosegrass plant response rating ([4]; 8 g ai/ha, scale 0 to 100): 55
- Goosegrass plant response rating ([4]; 16 g ai/ha, scale 0 to 100): 90
- Plant response rating, Surinam Grass [5, 15]: 100
- Plant response rating, Surinam Grass [5, 16]: 100
- Surinam Grass plant response rating ([5]; 8 g ai/ha): 15
- Surinam Grass plant response rating ([5]; 16 g ai/ha): 50
- Plant response rating, Ragweed [6, 15]: 0
- Plant response rating, Ragweed ([6]; 62 g ai/ha, scale 0 to 100): 0
- Ragweed plant response rating ([6]; 8 g ai/ha, scale 0 to 100): 0
- Ragweed plant response rating ([6]; 16 g ai/ha, scale 0 to 100): 0
- Plant response rating, Soybean [7, 15]: 0
- Plant response rating, Soybean ([7]; 62 g ai/ha, scale 0 to 100): 0
- Soybean plant response rating ([7]; 8 g ai/ha, scale 0 to 100): 0
- Soybean plant response rating ([7]; 16 g ai/ha, scale 0 to 100): 0
- Plant response rating, Crabgrass, Large [8, 17]: 100
- Plant response rating, Crabgrass, Large ([8]; 62 g ai/ha, scale 0 to 100): 100
- Crabgrass, Large plant response rating ([8]; 8 g ai/ha, scale 0 to 100): 20
- Crabgrass, Large plant response rating ([8]; 16 g ai/ha, scale 0 to 100): 98
- Plant response rating, Blackgrass [9, 14]: 80
- Plant response rating, Blackgrass [9, 17]: 100
- Plant response rating, Blackgrass ([9]; 62 g ai/ha, scale 0 to 100): 100
- Blackgrass plant response rating ([9]; scale 0 to 100): 0
- Plant response rating, Morningglory [10, 15]: 0
- Plant response rating, Morningglory ([10]; 62 g ai/ha, scale 0 to 100): 0
- Morningglory plant response rating ([10]; 8 g ai/ha, scale 0 to 100): 0
- Morningglory plant response rating ([10]; 16 g ai/ha, scale 0 to 100): 0
- Plant response rating, Foxtail, Green [11, 17]: 100
- Plant response rating, Foxtail, Green ([11]; 62 g ai/ha, scale 0 to 100): 100
- Foxtail, Green plant response rating ([11]; 8 g ai/ha, scale 0 to 100): 0
- Foxtail, Green plant response rating ([11]; 16 g ai/ha, scale 0 to 100): 90
- Plant response rating, Lambsquarters [12, 17]: 0
- Plant response rating, Lambsquarters ([12]; 62 g ai/ha, scale 0 to 100): 0
- Lambsquarters plant response rating ([12]; 8 g ai/ha, scale 0 to 100): 0
- Lambsquarters plant response rating ([12]; 16 g ai/ha, scale 0 to 100): 0
- Plant response rating, Oat, Wild [13, 15]: 35
- Plant response rating, Oat, Wild ([13]; 62 g ai/ha, scale 0 to 100): 70
- Oat, Wild plant response rating ([13]; 8 g ai/ha, scale 0 to 100): 0
- Oat, Wild plant response rating ([13]; 16 g ai/ha, scale 0 to 100): 0
